Measurements: US5612480A, “2-chloro and 2-bromo derivatives of 1,5-iminosugars” (priority 1995, dated 1997)
In brackets after ≈: the same amount, converted by molar mass. Where two headings read alike, the source gives them in different places.

Legend:
[1] = tested on: β-Glucosidase (almond); assay: Beta-glucosidase (almond) inhibition assay, pH 7.4; assay type: biochemical
Procedure: (§1) Yeast alpha-glucosidase and almond beta-glucosidase activities were measured by a modification of the method of Evans, et al., Phytochemistry 22, 768-770 (1983). The modifications included (1) assay of activities at pH 7.4 in HEPES (N-2-hydroxyethylpiperazine-N'-2-ethanesulfonic acid) buffer, 2) measurement in 96 well microtiter plates and (3) inclusion of 10% DMSO in control and test samples.
(§2) The release of p-nitrophenol from the substrate p-nitrophenylglycoside was measured spectrophotometrically in the presence and absence of test compound. Each assay included a known inhibitor of the enzyme as a standard. IC50 values were determined for compounds which inhibited the enzymes more than 50% at a 1 millimolar concentration.
(§3) To 100 μl 50 mM HEPES buffer, pH 7.4, in a microtiter plate, add 20 μl test compound in DMSO (DMSO alone in control), 40 μl (0.136 units) beta-glucosidase (Sigma) in HEPES buffer and pre-incubate at room temperature for 15 minutes. Add 40 μl 1.25 mM p-nitrophenyl-beta-D-glucopyranoside in HEPES buffer, as substrate and monitor absorbance change at 405 nm in a Biotek EIA Autoreader. Absorption change was measured at 15 to 25 minutes (reaction is linear for at least 30 minutes). Each sample was tested in triplicate. IC50 values were determined from the linear portion of the log concentration vs % inhibition curve obtained from a minimum of 3 points. Castanospermine was used as standard inhibitor.

[2] = tested on: visna virus; assay: Inhibition of visna virus growth, plaque reduction assay in sheep choroid plexus (SCP) cells (Method A); assay type: cell-based
Source text: Inhibitory activity against visna virus was shown by a conventional plaque reduction assay. Visna virus, a lentivirus genetically very similar to the AIDS virus, is pathogenic for sheep and goats. See Sonigo et al., Cell 42, 369-382 (1985); Haase, Nature 322, 130-136 (1986). Inhibition of visna virus replication in vitro as a useful model for HIV and its inhibition by test compounds has been described by Frank et al., Antimicrobial Agents and Chemotherapy 31 (9), 1369-1374 (1987).
(§4) Various illustrative compounds synthesized above were tested for inhibition of visna virus in vitro in a plaque reduction assay (Method A) or for inhibition of HIV-1 in a test which measured reduction of cyto-pathogenic effect in virus-infected syncytium-sensitive Leu-3a-positive CEM cells grown in tissue culture (Method B) as follows:
Sheep choroid plexus (SCP) cells were obtained from American Type Culture Collection (ATCC) catalogue number CRL 1700 and were routinely passaged in vitro in Dulbecco's Modified Eagles (DME) medium supplemented with 20% fetal bovine serum (FBS). SCP cells were passaged once per week at a 1:2 or 1:3 split ratio. Visna was titrated by plaque assay in six-well plates. Virus pools were stored at -70° C.
SCP cells were cultured in 6-well plates to confluence. Wells were washed two times with serum free Minimal Essential Medium (MEM) to remove FBS. 0.2 ml of virus was added per well in MEM supplemented with 4 mM glutamine and gentamycin. After 1 hour adsorption, the virus was aspirated from each well. The appropriate concentration of each compound in 5 ml of Medium 199 (M-199) supplemented with 2% lamb serum, 4 mM glutamine, 0.5% agarose and gentamycin was added to each well. Cultures were incubated at 37° C. in a humidified 5% CO2 incubator for 3-4 weeks. To terminate the test, cultures were fixed in 10% formalin, the agar removed, the monolayers stained with 1% crystal violet and plaques counted. Each compound concentration was run in triplicate. […] 0 is no toxicity observed while 4 is total lysing of the cell monolayer. […]
Control wells without virus were completed to determine the toxicity of compounds.

[3] = tested on: HIV-1; assay: Anti-HIV activity: inhibition of HIV-1 induced cytopathic effect in CEM cells, MTT (Method B); assay type: cell-based, strain HTVL-IIIB; settings: Human immunodeficiency virus 1, CCRF-CEM; for inhibition at 10 µg/mL: 10 μg/mL; for inhibition at 100 µg/mL: 100 μg/mL; for inhibition at 500 µg/mL: 500 μg/mL
Procedure: (§5) Inhibitory activity against HIV-1 was shown by tests involving plating of susceptible human host cells which are syncytium-sensitive with and without virus in microculture plates, adding various concentrations of the test compound, incubating the plates for 7 to 9 days (during which time infected, non-drug treated control cells are largely or totally destroyed by the virus), and then determining the remaining number of viable cells with a colorometric endpoint.
as §4
Tissue culture plates were incubated at 37° C. in a humidified, 5% CO2 atmosphere and observed microscopically for toxicity and/or cytopathogenic effect (CPE). At 1 hour prior to infection each test article was prepared from the frozen stock, and a 20 μl volume of each dilution (prepared as a 10 X concentration) was added to the appropriate wells of both infected and uninfected cells.
Assays were done in 96-well tissue culture plates. CEM cells were treated with polybrene at a concentration of 2 μg/ml, and an 80 μl volume of cells (1×10^4 cells) was dispensed into each well. A 100 μl volume of each test article dilution (prepared as a 2 X concentration) was added to 5 wells of cells, and the cells were incubated at 37° C. for 1 hour. A frozen culture of HIV-1, strain HTVL-IIIB, was diluted in culture medium to a concentration of 5×10^4 TCID50 per ml, and a 20 μl volume (containing 10^3 TCID50 of virus) was added to 3 of the wells for each test article concentration. […] A 20 μl volume of normal culture medium was added to the remaining wells to allow evaluation of cytotoxicity. Each plate contained 6 wells of untreated, uninfected, cell control samples and 6 wells of untreated, infected, virus control samples.
On the 9th day post-infection, the cells in each well were resuspended and a 100 μl sample of each cell suspension was removed for use in an MTT assay. A 20 μl volume of a 5 mg/ml solution of 3-(4,5-dimethylthiazol-2-yl)-2,5-diphenyltetrazolium bromide (MTT) was added to each 100 μl cell suspension, and the cells were incubated at 37° C. in 5% CO2 for 4 hours. […] A 100 μl volume of a solution of 10% sodium dodecyl sulfate in 0.01 N hydrochloric acid was added to each sample, and the samples were incubated overnight. The absorbance at 590 nm was determined for each sample using a Molecular Devices Vmax microplate reader. This assay detects drug-induced suppression of viral CPE, as well as drug cytotoxicity, by measuring the generation of MTT-formazan by surviving cells.

[4] = tested on: β-Glucosidase (almond); assay: Beta-glucosidase (almond) inhibitor assay, pH 4.8; assay type: biochemical
Procedure: as §1, §2
To 100 μl 50 mM sodium citrate buffer, pH 4.8, in a microtiter plate, add 15 μl test compound in DMSO (DMSO alone in control), 20 μl (0.017 units) beta-glucosidase (Sigma) in citrate buffer and pre-incubate at room temperature for 15 minutes. Add 25 μl 2.50 mM p-nitrophenyl-beta-D-glucopyranoside in citrate buffer, as substrate. Incubate at room temperature 20 minutes (reaction is linear for at least 30 minutes). Add 50 μl 0.4 M NaOH. Read absorption change at 405 nm in a Biotek EIA Autoreader. Each sample was tested in triplicate. IC50 values were determined from the linear portion of the log concentration vs % inhibition curve obtained from a minimum of 3 points. Castanospermine was used as standard inhibitor.

[5] = target: T1, α-Glucosidase (yeast) (Saccharomyces cerevisiae, UniProt P53341); assay: Alpha-glucosidase (yeast) inhibition assay, pH 7.4; assay type: biochemical
T1 construct: purchased Sigma
Procedure: as §1, §2
as §3, with “(0.013” for “(0.136”, “yeast alpha-glucosidase” for “beta-glucosidase”, “p-nitrophenyl-alpha-D-glucopyranoside (Sigma)” for “p-nitrophenyl-beta-D-glucopyranoside”, “substrate,” for “substrate”, “was” for “is”, “Deoxynojirimycin” for “Castanospermine”

[6] = tested on: α-glucosidase; assay: α-glucosidase inhibition, conventional in vitro assay (p-nitrophenol release); assay type: biochemical; settings: 0.1 mM
Procedure: (§6) Inhibitory activity against α- and β-glucosidase enzymes was determined by conventional in vitro assays for these enzymes as described in U.S. Pat. No. 4,973,602. These assays involve spectrophotometric measurement of the release of p-nitrophenol from the substrate p-nitrophenyl-glycoside in the presence and absence of the test compound and comparison against a control standard that contains a known inhibitor of the enzyme.

[7] = tested on: β-glucosidase; assay: β-glucosidase inhibition, conventional in vitro assay (p-nitrophenol release); assay type: biochemical; settings: 0.1 mM
Procedure: as §6

[8] = Cytotoxicity in CEM cells (TD50) in the standard CEM cell assay for HIV inhibition; assay type: cell-based; settings: human
Procedure: as §5
This is illustrated by a side-by-side comparison between the 2-chloro-N-butyl-DNJ of the present invention and the corresponding 2-fluoro-N-butyl-DNJ disclosed in U.S Pat. No. 5,025,021. […] Moreover, the foregoing illustrative 2-chloro derivative also is a better enzyme inhibitor than the corresponding 2-fluoro derivative. The 2-chloro derivative inhibits α-glucosidase 46% and β-glucosidase 32% at 0.1 mM, whereas the corresponding 2-fluoro derivative inhibits these enzymes at only 8% and 4% at the same concentration according to U.S. Pat. No. 5,025,021.
Assays were done in 96-well tissue culture plates. […]
On the 9th day post-infection, the cells in each well were resuspended and a 100 μl sample of each cell suspension was removed for use in an MTT assay. […] The absorbance at 590 nm was determined for each sample using a Molecular Devices Vmax microplate reader. […]

[9] = tested on: β-glucosidase; settings: 0.1 mM; according to U.S. Pat. No. 5,025,021; cited from earlier work
[10] = tested on: α-glucosidase; settings: 0.1 mM; according to U.S. Pat. No. 5,025,021; cited from earlier work
[11] = CEM cells, Table 2, read-out: Anti-HIV activity, inhibition of virus induced cytopathic effect, EC50
[12] = pH 7.4, read-out: Percent inhibition of α-glucosidase (yeast)
[13] = standard CEM cell assay, side-by-side comparison

T1 sequence (P53341 whole entry): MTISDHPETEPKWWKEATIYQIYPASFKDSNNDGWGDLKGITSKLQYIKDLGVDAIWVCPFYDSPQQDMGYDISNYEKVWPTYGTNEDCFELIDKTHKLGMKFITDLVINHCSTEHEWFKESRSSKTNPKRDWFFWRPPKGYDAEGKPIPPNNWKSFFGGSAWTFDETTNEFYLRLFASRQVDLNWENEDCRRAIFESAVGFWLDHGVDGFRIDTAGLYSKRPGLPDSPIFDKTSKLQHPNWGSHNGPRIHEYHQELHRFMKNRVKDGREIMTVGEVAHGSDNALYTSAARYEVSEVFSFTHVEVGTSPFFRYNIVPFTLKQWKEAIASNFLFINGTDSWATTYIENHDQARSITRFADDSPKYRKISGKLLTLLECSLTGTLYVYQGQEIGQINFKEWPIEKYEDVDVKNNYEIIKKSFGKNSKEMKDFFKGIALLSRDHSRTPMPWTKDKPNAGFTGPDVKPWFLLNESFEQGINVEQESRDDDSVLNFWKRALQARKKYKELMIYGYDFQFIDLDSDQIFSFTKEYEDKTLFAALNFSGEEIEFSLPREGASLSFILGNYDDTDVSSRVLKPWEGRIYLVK

CCCCCCN1C[C@H](Cl)[C@@H](O)[C@H](O)[C@H]1CO [Example 28, 2-Chloro-1,2,5-trideoxy-1,5(hexylimino)-D-glucitol]
Percent inhibition of β-glucosidase (almond) ([1]; 100 μM): 62.9% | Percent inhibition of β-glucosidase (almond) ([1]; 1000 μM): 90% | % inhibition of visna virus growth ([2]; 0.001 mM): 6% | % inhibition of visna virus growth ([2]; 0.01 mM): 61% | % inhibition of visna virus growth ([2]; 0.1 mM): 100% | % inhibition of visna virus growth ([2]; 1.0 mM): 100% | EC50 [3, 11]: 11 µg/mL (≈ 41.4 µM) | Percent inhibition of β-glucosidase (almond) ([4]; 100 μM): 43.7% | Percent inhibition of β-glucosidase (almond) ([4]; 1000 μM): 84% | inhibition at 1 µM [5, 12]: 4% | inhibition at 10 µM [5, 12]: 37.6% | inhibition at 100 µM [5, 12]: 82.9% | inhibition at 1000 µM [5, 12]: 95.5%

CCCCN1C[C@H](Cl)[C@@H](O)[C@H](O)[C@H]1CO [Example 27, 1,5-(Butylimino)-2-chloro-1,2,5-trideoxy-D-glucitol]
% inhibition of α-glucosidase [6]: 46% | % inhibition of β-glucosidase [7]: 32% | inhibition at 10 µM ([2]; Visna-maedi virus, 0.01 mM): 39% | inhibition at 100 µM ([2]; Visna-maedi virus, 0.1 mM): 38% | inhibition at 1000 µM ([2]; Visna-maedi virus, 1.0 mM): 99% | inhibition at 10 µg/mL [3, 13]: 29.3% | inhibition at 100 µg/mL [3, 13]: 62.5% | EC50 [3, 11]: 43 µg/mL (≈ 181 µM) | EC50 ([3]; standard CEM cell assay, side-by-side comparison, read-out: EC50, HIV inhibition, calculated by linear regression): 43 µg/mL (≈ 181 µM) | CC50 [8]: 187 µg/mL (≈ 787 µM)

CCCCN1C[C@H](F)[C@@H](O)[C@H](O)[C@H]1CO [2-fluoro-N-butyl-DNJ, reference compound]
% inhibition of β-glucosidase [9]: 4% | % inhibition of α-glucosidase [10]: 8% | inhibition at 10 µg/mL [3, 13]: 0% | inhibition at 100 µg/mL [3, 13]: 0% | inhibition at 500 µg/mL ([3]; standard CEM cell assay, side-by-side comparison, read-out: % inhibition of HIV): 3%

CCCCN1[C@H](CO)[C@@H](O)[C@H](O)[C@H]1CN=[N+]=[N-] [Example 47, 1-Azido-2,5-(butylimino)-1,2,5-trideoxy-D-mannitol]
Percent inhibition of β-glucosidase (almond) ([1]; 100 μM): -4.1% | Percent inhibition of β-glucosidase (almond) ([1]; 1000 μM): 6.7% | inhibition at 500 µg/mL ([3]; CEM cells, Table 2, read-out: Anti-HIV activity, % inhibition of virus induced cytopathic effect): 36% | Percent inhibition of β-glucosidase (almond) ([4]; 100 μM): 11.2% | Percent inhibition of β-glucosidase (almond) ([4]; 1000 μM): 32.6% | inhibition at 100 µM ([5]; 100 μM, pH 7.4, read-out: Percent inhibition of α-glucosidase (yeast)): 22.7% | inhibition at 1000 µM ([5]; 1000 μM, pH 7.4, read-out: Percent inhibition of α-glucosidase (yeast)): 24.8%
